Reference: patent publication US20070053985A1, “Coenzyme Q10-containing fine particle with excellent dispersibility” (KANEKA CORPORATION, priority 2005, published 2007)

Experiments:
[1] = Dispersibility in water, mixture stirred violently; assay type: physicochemical; settings: 5 mg added into 100 mL of water, stirring violently
Experimental: Oxidized coenzyme Q10 crystals (5 mg) or reduced coenzyme Q10 crystals (5 mg) as obtained in the Production Example 1 was added into 100 mL of water, and each mixture was then stirring violently. In the both mixtures, one part of fine particles adhered to the wall of vessel, and another part thereof formed lumps of particles floated on the water surface.

[2] = Adhesion of particles to the wall of a glass sample bottle on shaking; assay type: physicochemical; settings: 500 mg in a 10-mL glass sample bottle, shaken
Experimental: Fine particles as obtained in Example 4 (500 mg) was placed in a 10-mL glass sample bottle, and then shaken.
Reduced coenzyme Q10 crystals as obtained in Production Example 1 (500 mg) was placed in a 10-mL glass sample bottle, and then shaken in the same manner as Example 8.

dispersibility in water [1] | Compound | adhesion to the wall of bottle [2]
the particles were not dispersed easily | COC1=C(OC)C(=O)C(C/C=C(\C)CC/C=C(\C)CC/C=C(\C)CC/C=C(\C)CC/C=C(\C)CC/C=C(\C)CC/C=C(\C)CC/C=C(\C)CC/C=C(\C)CCC=C(C)C)=C(C)C1=O [Oxidized coenzyme Q10 crystals, Oxidized coenzyme Q10] | 
the particles were not dispersed easily | COc1c(O)c(C)c(C/C=C(\C)CC/C=C(\C)CC/C=C(\C)CC/C=C(\C)CC/C=C(\C)CC/C=C(\C)CC/C=C(\C)CC/C=C(\C)CC/C=C(\C)CCC=C(C)C)c(O)c1OC [reduced coenzyme Q10 crystals, reduced coenzyme Q10] | most of the crystals were adhered to the wall
